Results taken from patent US9738634B2, “Heterocyclic amide compound and herbicide” (SYNGENTA PARTICIPATIONS AG, priority 2013, dated 2017).

Key:
Type in all cases: in vivo
barnyard grass [1] = assay: Test Example 1: weedkilling efficacy, preemergent weed treatment in the submerged state; A: barnyard grass; conditions: treatment dosage 252 g/ha
How it was run: (§1)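 Pre-emergence paddy test: weed seeds sown in submerged alluvial soil (4 cm water), 2.5-leaf rice transplanted, water-diluted emulsion applied to water surface at sowing at stated g/ha. Scored at 3 weeks, greenhouse 25–30 °C.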

bulrush [2] = assay: Test Example 1: weedkilling efficacy, preemergent weed treatment in the submerged state; B: bulrush; conditions: treatment dosage 252 g/ha
How it was run: as §1

oval-leafed pondweed [3] = assay: Test Example 1: weedkilling efficacy, preemergent weed treatment in the submerged state; C: oval-leafed pondweed; conditions: treatment dosage 252 g/ha
How it was run: as §1

transplanted rice = assay: Test Example 1: preemergent weed treatment in the submerged state, effect on crop; a: transplanted rice; conditions: treatment dosage 252 g/ha
How it was run: as §1

barnyard grass [4] = assay: Test Example 2: weedkilling efficacy, growth period weed treatment in the submerged state; A: barnyard grass; conditions: treatment dosage 252 g/ha
How it was run: (§2)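 Seedlings at 1-2 leaves in 4 cm-deep submerged alluvial soil received emulsion formulations on the water surface, dosed per hectare; effects were judged 3 weeks on.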

bulrush [5] = assay: Test Example 2: weedkilling efficacy, growth period weed treatment in the submerged state; B: bulrush; conditions: treatment dosage 252 g/ha
How it was run: as §2

oval-leafed pondweed [6] = assay: Test Example 2: weedkilling efficacy, growth period weed treatment in the submerged state; C: oval-leafed pondweed; conditions: treatment dosage 252 g/ha
How it was run: as §2

crabgrass [7] = assay: Test Example 3: weedkilling efficacy through soil treatment; D: crabgrass; conditions: treatment dosage 315 g/ha
How it was run: (§3)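 Crop and weed responses were judged three weeks after a uniform surface spray of the water-diluted emulsion at the given g/ha rate. Seeds sat beneath about 1.5 cm of sterilized diluvial soil, and boxes stood in a greenhouse at 25 to 30° C.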

green foxtail [8] = assay: Test Example 3: weedkilling efficacy through soil treatment; E: green foxtail; conditions: treatment dosage 315 g/ha
How it was run: as §3

barnyard grass [9] = assay: Test Example 3: weedkilling efficacy through soil treatment; F: barnyard grass; conditions: treatment dosage 315 g/ha
How it was run: as §3

wild oat [10] = assay: Test Example 3: weedkilling efficacy through soil treatment; G: wild oat; conditions: treatment dosage 315 g/ha
How it was run: as §3

black-grass [11] = assay: Test Example 3: weedkilling efficacy through soil treatment; H: black-grass; conditions: treatment dosage 315 g/ha
How it was run: as §3

Italian ryegrass [12] = assay: Test Example 3: weedkilling efficacy through soil treatment; I: Italian ryegrass; conditions: treatment dosage 315 g/ha
How it was run: as §3

common wind-grass [13] = assay: Test Example 3: weedkilling efficacy through soil treatment; J: common wind-grass; conditions: treatment dosage 315 g/ha
How it was run: as §3

Indian mallow [14] = assay: Test Example 3: weedkilling efficacy through soil treatment; K: Indian mallow; conditions: treatment dosage 315 g/ha
How it was run: as §3

redroot pigweed [15] = assay: Test Example 3: weedkilling efficacy through soil treatment; L: redroot pigweed; conditions: treatment dosage 315 g/ha
How it was run: as §3

chickweed [16] = assay: Test Example 3: weedkilling efficacy through soil treatment; N: chickweed; conditions: treatment dosage 315 g/ha
How it was run: as §3

catchweed [17] = assay: Test Example 3: weedkilling efficacy through soil treatment; O: catchweed; conditions: treatment dosage 315 g/ha
How it was run: as §3

birds-eye speedwell [18] = assay: Test Example 3: weedkilling efficacy through soil treatment; p: birds-eye speedwell; conditions: treatment dosage 315 g/ha
How it was run: as §3

directly sown rice [19] = assay: Test Example 3: soil treatment, effect on crop; b: directly sown rice; conditions: treatment dosage 315 g/ha
How it was run: as §3

corn [20] = assay: Test Example 3: soil treatment, effect on crop; c: corn; conditions: treatment dosage 315 g/ha
How it was run: as §3

soybean [21] = assay: Test Example 3: soil treatment, effect on crop; d: soybean; conditions: treatment dosage 315 g/ha
How it was run: as §3

wheat [22] = assay: Test Example 3: soil treatment, effect on crop; e: wheat; conditions: treatment dosage 315 g/ha
How it was run: as §3

beet [23] = assay: Test Example 3: soil treatment, effect on crop; f: beet; conditions: treatment dosage 315 g/ha
How it was run: as §3

rapeseed [24] = assay: Test Example 3: soil treatment, effect on crop; g: rapeseed; conditions: treatment dosage 315 g/ha
How it was run: as §3

crabgrass [25] = assay: Test Example 4: weedkilling efficacy by foliar treatment; D: crabgrass; conditions: treatment dosage 315 g/ha
How it was run: (§4)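 Seeds are spot-sown into sterilized diluvial soil and covered with about 1.5 cm of soil. After 14 days' greenhouse growth at 25 to 30° C, plants are sprayed on stems and leaves with diluted emulsion at the stated g/ha rate, then scored at 3 weeks.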

green foxtail [26] = assay: Test Example 4: weedkilling efficacy by foliar treatment; E: green foxtail; conditions: treatment dosage 315 g/ha
How it was run: as §4

barnyard grass [27] = assay: Test Example 4: weedkilling efficacy by foliar treatment; F: barnyard grass; conditions: treatment dosage 315 g/ha
How it was run: as §4

wild oat [28] = assay: Test Example 4: weedkilling efficacy by foliar treatment; G: wild oat; conditions: treatment dosage 315 g/ha
How it was run: as §4

black-grass [29] = assay: Test Example 4: weedkilling efficacy by foliar treatment; H: black-grass; conditions: treatment dosage 315 g/ha
How it was run: as §4

Italian ryegrass [30] = assay: Test Example 4: weedkilling efficacy by foliar treatment; I: Italian ryegrass; conditions: treatment dosage 315 g/ha
How it was run: as §4

common wind-grass [31] = assay: Test Example 4: weedkilling efficacy by foliar treatment; J: common wind-grass; conditions: treatment dosage 315 g/ha
How it was run: as §4

Indian mallow [32] = assay: Test Example 4: weedkilling efficacy by foliar treatment; K: Indian mallow; conditions: treatment dosage 315 g/ha
How it was run: as §4

redroot pigweed [33] = assay: Test Example 4: weedkilling efficacy by foliar treatment; L: redroot pigweed; conditions: treatment dosage 315 g/ha
How it was run: as §4

chickweed [34] = assay: Test Example 4: weedkilling efficacy by foliar treatment; N: chickweed; conditions: treatment dosage 315 g/ha
How it was run: as §4

catchweed [35] = assay: Test Example 4: weedkilling efficacy by foliar treatment; O: catchweed; conditions: treatment dosage 315 g/ha
How it was run: as §4

birds-eye speedwell [36] = assay: Test Example 4: weedkilling efficacy by foliar treatment; p: birds-eye speedwell; conditions: treatment dosage 315 g/ha
How it was run: as §4

directly sown rice [37] = assay: Test Example 4: foliar treatment, effect on crop; b: directly sown rice; conditions: treatment dosage 315 g/ha
How it was run: as §4

corn [38] = assay: Test Example 4: foliar treatment, effect on crop; c: corn; conditions: treatment dosage 315 g/ha
How it was run: as §4

soybean [39] = assay: Test Example 4: foliar treatment, effect on crop; d: soybean; conditions: treatment dosage 315 g/ha
How it was run: as §4

wheat [40] = assay: Test Example 4: foliar treatment, effect on crop; e: wheat; conditions: treatment dosage 315 g/ha
How it was run: as §4

beet [41] = assay: Test Example 4: foliar treatment, effect on crop; f: beet; conditions: treatment dosage 315 g/ha
How it was run: as §4

rapeseed [42] = assay: Test Example 4: foliar treatment, effect on crop; g: rapeseed; conditions: treatment dosage 315 g/ha
How it was run: as §4

CC1=C(c2ccccc2)C(=O)N(C(C)(C)C(=O)Nc2cc(F)cc(F)n2)CO1 [B-2-33]
A (barnyard grass) weedkilling efficacy grade (barnyard grass [1]): 5 (weed kill ratio 90% or more, (practically complete withering)) | B (bulrush) weedkilling efficacy grade (bulrush [2]): 5 (weed kill ratio 90% or more, (practically complete withering)) | C (oval-leafed pondweed) weedkilling efficacy grade (oval-leafed pondweed [3]): 5 (weed kill ratio 90% or more, (practically complete withering)) | a (transplanted rice) effect on crop grade (transplanted rice): 3 (weed kill ratio 40% or more, less than 70%) | A (barnyard grass) weedkilling efficacy grade (barnyard grass [4]): 5 (weed kill ratio 90% or more, (practically complete withering)) | B (bulrush) weedkilling efficacy grade (bulrush [5]): 5 (weed kill ratio 90% or more, (practically complete withering)) | C (oval-leafed pondweed) weedkilling efficacy grade (oval-leafed pondweed [6]): 5 (weed kill ratio 90% or more, (practically complete withering)) | D (crabgrass) weedkilling efficacy grade (crabgrass [7]): 5 (weed kill ratio 90% or more, (practically complete withering)) | E (green foxtail) weedkilling efficacy grade (green foxtail [8]): 5 (weed kill ratio 90% or more, (practically complete withering)) | F (barnyard grass) weedkilling efficacy grade (barnyard grass [9]): 5 (weed kill ratio 90% or more, (practically complete withering)) | G (wild oat) weedkilling efficacy grade (wild oat [10]): 5 (weed kill ratio 90% or more, (practically complete withering)) | H (black-grass) weedkilling efficacy grade (black-grass [11]): 5 (weed kill ratio 90% or more, (practically complete withering)) | I (Italian ryegrass) weedkilling efficacy grade (Italian ryegrass [12]): 5 (weed kill ratio 90% or more, (practically complete withering)) | J (common wind-grass) weedkilling efficacy grade (common wind-grass [13]): 5 (weed kill ratio 90% or more, (practically complete withering)) | K (Indian mallow) weedkilling efficacy grade (Indian mallow [14]): 5 (weed kill ratio 90% or more, (practically complete withering)) | L (redroot pigweed) weedkilling efficacy grade (redroot pigweed [15]): 4 (weed kill ratio 70% or more, less than 90%) | N (chickweed) weedkilling efficacy grade (chickweed [16]): 4 (weed kill ratio 70% or more, less than 90%) | O (catchweed) weedkilling efficacy grade (catchweed [17]): 5 (weed kill ratio 90% or more, (practically complete withering)) | P (birds-eye speedwell) weedkilling efficacy grade (birds-eye speedwell [18]): 5 (weed kill ratio 90% or more, (practically complete withering)) | b (directly sown rice) effect on crop grade (directly sown rice [19]): 5 (weed kill ratio 90% or more, (practically complete withering)) | c (corn) effect on crop grade (corn [20]): 3 (weed kill ratio 40% or more, less than 70%) | d (soybean) effect on crop grade (soybean [21]): 4 (weed kill ratio 70% or more, less than 90%) | e (wheat) effect on crop grade (wheat [22]): 5 (weed kill ratio 90% or more, (practically complete withering)) | f (beet) effect on crop grade (beet [23]): 1 (weed kill ratio 5% or more, less than 20%) | g (rapeseed) effect on crop grade (rapeseed [24]): 5 (weed kill ratio 90% or more, (practically complete withering)) | D (crabgrass) weedkilling efficacy grade (crabgrass [25]): 5 (weed kill ratio 90% or more, (practically complete withering)) | E (green foxtail) weedkilling efficacy grade (green foxtail [26]): 5 (weed kill ratio 90% or more, (practically complete withering)) | F (barnyard grass) weedkilling efficacy grade (barnyard grass [27]): 5 (weed kill ratio 90% or more, (practically complete withering)) | G (wild oat) weedkilling efficacy grade (wild oat [28]): 5 (weed kill ratio 90% or more, (practically complete withering)) | H (black-grass) weedkilling efficacy grade (black-grass [29]): 5 (weed kill ratio 90% or more, (practically complete withering)) | I (Italian ryegrass) weedkilling efficacy grade (Italian ryegrass [30]): 5 (weed kill ratio 90% or more, (practically complete withering)) | J (common wind-grass) weedkilling efficacy grade (common wind-grass [31]): 5 (weed kill ratio 90% or more, (practically complete withering)) | K (Indian mallow) weedkilling efficacy grade (Indian mallow [32]): 4 (weed kill ratio 70% or more, less than 90%) | L (redroot pigweed) weedkilling efficacy grade (redroot pigweed [33]): 4 (weed kill ratio 70% or more, less than 90%) | N (chickweed) weedkilling efficacy grade (chickweed [34]): 4 (weed kill ratio 70% or more, less than 90%) | O (catchweed) weedkilling efficacy grade (catchweed [35]): 5 (weed kill ratio 90% or more, (practically complete withering)) | P (birds-eye speedwell) weedkilling efficacy grade (birds-eye speedwell [36]): 5 (weed kill ratio 90% or more, (practically complete withering)) | b (directly sown rice) effect on crop grade (directly sown rice [37]): 5 (weed kill ratio 90% or more, (practically complete withering)) | c (corn) effect on crop grade (corn [38]): 3 (weed kill ratio 40% or more, less than 70%) | d (soybean) effect on crop grade (soybean [39]): 4 (weed kill ratio 70% or more, less than 90%) | e (wheat) effect on crop grade (wheat [40]): 4 (weed kill ratio 70% or more, less than 90%) | f (beet) effect on crop grade (beet [41]): 4 (weed kill ratio 70% or more, less than 90%) | g (rapeseed) effect on crop grade (rapeseed [42]): 4 (weed kill ratio 70% or more, less than 90%)
